These are literature values, as cited in patent US11337939B2 (PULMONEM INC., priority 2020, dated 2022).

Data set [1] concerns human bronchial epithelial cells. The settings on record: stimulated with lipopolysaccharide.
For another data set, the system named is airway inflammation. The note with it: ferret.

`Nc1ccc(S(=O)(=O)c2ccc(N)cc2)cc1` [Dapsone, 4,4′-diaminodiphenyl sulfone]: the IL-8 secretion result in data set [1] is “inhibits IL-8 secretion”. Further, in the data set on airway inflammation, the airway inflammation result is on record as “resolves airway inflammation”. Moreover, the “absorbed from the gastrointestinal tract” value (from the gastrointestinal tract) was 70%-80%. The “time to peak serum concentration” value (serum) was 2 to 6 h.
